Activity calls are given as the source filed them. The rule behind the calls is not given here.
Assays:
HCT-116 [1] = assay: Inhibition of cell migration in human HCT-116 cells at 5 uM measured for 24 hrs by scratch wound healing assay; format: functional
HCT-116 [2] = assay: Growth inhibition of human HCT-116 cells incubated for 1.5 hrs by MTT assay; format: functional, cell-based; details: HCT-116, 1.5 h
SW480 = assay: Growth inhibition of human SW480 cells incubated for 1.5 hrs by MTT assay; format: functional, cell-based
HCT-116 [3] = assay: Induction of apoptosis in human HCT-116 cells assessed as late apoptotic cells at 1.5 uM incubated for 24 hrs by annexin V-FITC/7-AAD staining based flow cytometry analysis (reference value: 1.53%); format: functional
A2780 = assay: Growth inhibition of human A2780 cells incubated for 1.5 hrs by MTT assay; format: functional, cell-based; details: A2780, 1.5 h
Tubulin (Bos taurus) [4] = target: T1, Tubulin (Bos taurus) (UniProt Q6B856+Q862L2+Q862F3); assay: Inhibition of bovine brain tubulin polymerization at 6 uM measured at 2 to 20 mins by spectrophotometer analysis relative to control; details: time 2-20 min
HCT-116 [5] = assay: Induction of apoptosis in human HCT-116 cells assessed as viable cells at 3 uM incubated for 24 hrs by annexin V-FITC/7-AAD staining based flow cytometry analysis (reference value: 90.19%); format: functional; details: read-out: Activity
HCT-116 [6] = assay: Induction of cell cycle arrest in human HCT-116 cells assessed as accumulation of cells at S phase at 3 uM incubated for 24 hrs by flow cytometry analysis (reference value: 3.61%); format: functional
[7] = target: Tubulin beta (Homo sapiens) (UniProt P68371+Q9H4B7+Q13509+P04350+Q3ZCM7+P07437+Q13885+Q9BVA1+Q9BUF5+A6NNZ2); assay: Binding affinity to beta-tubulin colchicine binding site in human HCT-116 cells assessed as inhibition of EBI-beta-tubulin adduct band formation at 1 to 25 uM preincubated for 2 hrs followed by EBI addition measured after 1.5 hrs by EBI competition based Western blotting analysis; format: cell-based; details: dose 1-25 µM, time 3.5 hrs
HCT-116 [8] = assay: Induction of cell cycle arrest in human HCT-116 cells assessed as accumulation of cells at G1 phase at 3 uM incubated for 24 hrs by flow cytometry analysis (reference value: 68.74%); format: functional
HCT-116 [9] = assay: Induction of cell cycle arrest in human HCT-116 cells assessed as accumulation of cells at S phase at 1.5 uM incubated for 24 hrs by flow cytometry analysis (reference value: 3.61%); format: functional
HCT-116 [10] = assay: Induction of cell cycle arrest in human HCT-116 cells assessed as accumulation of cells at G2/M phase at 3 uM incubated for 24 hrs by flow cytometry analysis (reference value: 18.25%); format: functional
[11] = Cytotoxicity against human HUVEC cells assessed as inhibition of cell growth incubated 1.5 hrs by MTT assay; format: toxicity, cell-based
HCT-116 [12] = assay: Induction of cell cycle arrest in human HCT-116 cells assessed as accumulation of cells at G1 phase at 6 uM incubated for 24 hrs by flow cytometry analysis (reference value: 68.74%); format: functional
HCT-116 [13] = assay: Induction of apoptosis in human HCT-116 cells assessed as necrotic cells at 3 uM incubated for 24 hrs by annexin V-FITC/7-AAD staining based flow cytometry analysis (reference value: 2.46%); format: functional
[14] = target: Voltage-gated inwardly rectifying potassium channel KCNH2 (Homo sapiens, UniProt Q12809); assay: Inhibition of hERG expressed in CHO cells at 40 uM by automated patch clamp analysis; format: toxicity, cell-based
Voltage-gated inwardly rectifying potassium channel KCNH2, sequence (Q12809 whole entry): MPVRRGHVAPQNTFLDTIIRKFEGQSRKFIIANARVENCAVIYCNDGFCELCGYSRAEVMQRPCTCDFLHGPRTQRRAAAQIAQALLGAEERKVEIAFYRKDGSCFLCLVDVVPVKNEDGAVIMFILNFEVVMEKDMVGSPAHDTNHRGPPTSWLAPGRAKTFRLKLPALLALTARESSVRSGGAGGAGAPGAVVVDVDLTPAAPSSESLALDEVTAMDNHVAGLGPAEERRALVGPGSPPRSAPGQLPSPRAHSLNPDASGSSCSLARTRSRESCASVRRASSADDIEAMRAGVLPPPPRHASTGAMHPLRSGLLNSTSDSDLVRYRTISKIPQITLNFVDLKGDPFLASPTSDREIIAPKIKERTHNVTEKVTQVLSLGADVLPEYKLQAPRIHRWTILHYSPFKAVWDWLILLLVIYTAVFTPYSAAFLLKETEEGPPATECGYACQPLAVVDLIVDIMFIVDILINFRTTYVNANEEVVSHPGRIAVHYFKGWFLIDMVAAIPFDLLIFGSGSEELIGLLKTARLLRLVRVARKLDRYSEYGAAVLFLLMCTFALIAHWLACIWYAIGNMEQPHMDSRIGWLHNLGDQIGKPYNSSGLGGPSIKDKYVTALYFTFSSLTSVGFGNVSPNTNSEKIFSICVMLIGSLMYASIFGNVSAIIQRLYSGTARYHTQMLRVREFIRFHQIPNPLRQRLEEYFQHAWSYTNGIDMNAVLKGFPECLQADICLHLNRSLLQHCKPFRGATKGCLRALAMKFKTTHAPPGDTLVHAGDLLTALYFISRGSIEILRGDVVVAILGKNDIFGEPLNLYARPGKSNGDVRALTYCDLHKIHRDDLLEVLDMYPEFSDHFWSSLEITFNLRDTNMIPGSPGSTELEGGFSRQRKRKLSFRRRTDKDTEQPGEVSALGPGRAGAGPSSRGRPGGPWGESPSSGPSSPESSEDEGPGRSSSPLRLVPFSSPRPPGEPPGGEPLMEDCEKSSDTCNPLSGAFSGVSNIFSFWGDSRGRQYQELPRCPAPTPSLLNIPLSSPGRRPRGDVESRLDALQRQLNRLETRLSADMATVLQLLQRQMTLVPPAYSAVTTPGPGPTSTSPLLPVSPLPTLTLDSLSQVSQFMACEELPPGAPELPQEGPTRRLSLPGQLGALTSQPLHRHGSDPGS

HCT-116 [15] = assay: Induction of apoptosis in human HCT-116 cells assessed as early apoptotic cells at 1.5 uM incubated for 24 hrs by annexin V-FITC/7-AAD staining based flow cytometry analysis (reference value: 5.82%); format: functional
[16] = Potency index, ratio of test compound IC50 to 5-fluorouracil IC50 for cytotoxicity against HEK293 cells assessed as inhibition of cell growth incubated 1.5 hrs by MTT assay; format: toxicity, cell-based; details: human, read-out: Ratio IC50
[17] = Potency index, ratio of test compound IC50 to 5-fluorouracil IC50 for cytotoxicity against human HUVEC cells assessed as inhibition of cell growth incubated 1.5 hrs by MTT assay; format: toxicity, cell-based; details: read-out: Ratio IC50
HCT-116 [18] = assay: Induction of cell cycle arrest in human HCT-116 cells assessed as accumulation of cells at G2 phase at 3 uM incubated for 24 hrs by flow cytometry analysis (reference value: 18.25%); format: functional
HCT-116 [19] = assay: Inhibition of colony formation in human HCT-116 cells at 0.5 uM incubated for 48 hrs by crystal violet staining based analysis; format: functional; details: HCT-116, 48 h, values are per cent of control
HCT-116 [20] = assay: Induction of apoptosis in human HCT-116 cells assessed as early apoptotic cells at 3 uM incubated for 24 hrs by annexin V-FITC/7-AAD staining based flow cytometry analysis (reference value: 5.82%); format: functional
HCT-116 [21] = assay: Induction of cell cycle arrest in human HCT-116 cells assessed as accumulation of cells at G1 phase at 1.5 uM incubated for 24 hrs by flow cytometry analysis (reference value: 68.74%); format: functional
HCT-116 [22] = assay: Induction of apoptosis in human HCT-116 cells assessed as necrotic cells at 6 uM incubated for 24 hrs by annexin V-FITC/7-AAD staining based flow cytometry analysis (reference value: 2.46%); format: functional
HCT-116 [23] = assay: Inhibition of cell migration in human HCT-116 cells measured for 24 hrs by scratch wound healing assay; format: functional, cell-based; details: dose 0.5-5 µM
HCT-116 [24] = assay: Induction of apoptosis in human HCT-116 cells assessed as viable cells at 1.5 uM incubated for 24 hrs by annexin V-FITC/7-AAD staining based flow cytometry analysis (reference value: 90.19%); format: functional; details: read-out: Activity
HCT-116 [25] = assay: Inhibition of colony formation in human HCT-116 cells at 0.1 uM incubated for 48 hrs by crystal violet staining based analysis; format: functional; details: HCT-116, 48 h, values are per cent of control
Tubulin (Bos taurus) [26] = target: T1, Tubulin (Bos taurus); assay: Inhibition of bovine brain tubulin polymerization at 3 uM measured at 2 to 20 mins by spectrophotometer analysis relative to control; details: time 2-20 min
HeLa = assay: Growth inhibition of human HeLa cells incubated for 1.5 hrs by MTT assay; format: functional, cell-based
HCT-116 [27] = assay: Induction of apoptosis in human HCT-116 cells assessed as late apoptotic cells at 3 uM incubated for 24 hrs by annexin V-FITC/7-AAD staining based flow cytometry analysis (reference value: 1.53%); format: functional
HCT-116 [28] = assay: Induction of apoptosis in human HCT-116 cells assessed as early apoptotic cells at 6 uM incubated for 24 hrs by annexin V-FITC/7-AAD staining based flow cytometry analysis (reference value: 5.82%); format: functional
HCT-116 [29] = assay: Induction of cell cycle arrest in human HCT-116 cells assessed as accumulation of cells at G2 phase at 1.5 uM incubated for 24 hrs by flow cytometry analysis (reference value: 18.25%); format: functional
Tubulin (Bos taurus) [30] = target: T1, Tubulin (Bos taurus); assay: Inhibition of bovine brain tubulin polymerization at 12 uM measured at 2 to 20 mins by spectrophotometer analysis relative to control; details: time 2-20 min
Tubulin (Bos taurus) [31] = target: T1, Tubulin (Bos taurus); assay: (§1) Inhibition of bovine brain tubulin polymerization measured at 2 to 20 mins by spectrophotometer analysis; details: time 2-20 min
Tubulin = Tubulin (Bos taurus, UniProt Q6B856+Q862L2+Q862F3); assay: as §1
HCT-116 [32] = assay: Inhibition of colony formation in human HCT-116 cells incubated for 48 hrs by crystal violet staining based analysis; format: functional, cell-based; details: dose 0.1-2 µM

IC50 (HCT-116 [2]): 260 nM
IC50 (SW480): 1310 nM
IC50 (A2780): 590 nM
inhibition (Tubulin (Bos taurus) [4]): 54%
Activity [7]: Active
inhibition (Tubulin (Bos taurus) [26]): 30%
IC50 (HeLa): 380 nM
inhibition (Tubulin (Bos taurus) [30]): 66%
inhibition (Tubulin (Bos taurus) [31]): Dose-Dependent Effect
IC50 (Tubulin): 6100 nM
SMILES: CCOc1ccc([C@H]2CC(=O)c3cc(OC)c(OC)c(OC)c32)cc1F
inhibition at 5 µM (HCT-116 [1]): 80%
Activity (HCT-116 [3]): 2.85%
viability at 3 µM (HCT-116 [5]): 73%
Activity (HCT-116 [6]): 6.6%
Activity (HCT-116 [8]): 62.85%
Activity (HCT-116 [9]): 7.57%
Activity (HCT-116 [10]): 28.73%
IC50 at 1.5 h [11]: 15000 nM
Activity (HCT-116 [12]): 35.2%
Activity (HCT-116 [13]): 3.2%
IC50 [14]: > 40000 nM
Activity (HCT-116 [15]): 8.12%
selectivity ratio at 1.5 h [16]: 1.39
selectivity ratio at 1.5 h [17]: 1.6
Activity (HCT-116 [18]): 28.73%
growth, % of control at 0.5 µM (HCT-116 [19]): 30.8%
Activity (HCT-116 [20]): 18.75%
Activity (HCT-116 [21]): 65.69%
Activity (HCT-116 [22]): 4.48%
inhibition (HCT-116 [23]): Dose-Dependent Effect
viability at 1.5 µM (HCT-116 [24]): 86.7%
growth, % of control at 0.1 µM (HCT-116 [25]): 57.9%
Activity (HCT-116 [27]): 5.07%
Activity (HCT-116 [28]): 21.2%
Activity (HCT-116 [29]): 24.4%
inhibition (HCT-116 [32]): Dose-Dependent Effect

— ChEMBL document CHEMBL5329222, “Discovery of novel tubulin CBSI (R)-9k from the indanone scaffold for the treatment of colorectal cancer” (RSC Med Chem, 2023)
